The text below walks through data of patent US5846934A, “Pure somatostatin antagonist and methods of use thereof” (American Cyanamid Company, priority 1997, dated 1998).

Experiment [1] deals with SSTR2 (Rattus norvegicus, UniProt P30680). The experiment in a line: Competitive binding, displacement of [125I]Tyr11 S-14. Set-up: expressed in transfected cells; membrane protein. To be noted: for Ki: calculated by method of Cheng and Prusoff, read-out: SSTR2 Binding Affinity Ki; for IC50: displacement of [125I]Tyr11 S-14, 250 pM, room temperature, 2 hours, read-out: SSTR2 Binding Affinity IC50. Here is the method: In this evaluation the concentration of test compound required to displace 50% of somatostatin, SRIF, from the SRIF receptor subtypes expressed in mammalian cells is measured, i.e., the concentration required to inhibit 50% of [^125 I] Tyr^11 S-14 (Amersham) (IC50) from binding to the SRIF receptor subtypes.
SSTR2, sequence (P30680 whole entry): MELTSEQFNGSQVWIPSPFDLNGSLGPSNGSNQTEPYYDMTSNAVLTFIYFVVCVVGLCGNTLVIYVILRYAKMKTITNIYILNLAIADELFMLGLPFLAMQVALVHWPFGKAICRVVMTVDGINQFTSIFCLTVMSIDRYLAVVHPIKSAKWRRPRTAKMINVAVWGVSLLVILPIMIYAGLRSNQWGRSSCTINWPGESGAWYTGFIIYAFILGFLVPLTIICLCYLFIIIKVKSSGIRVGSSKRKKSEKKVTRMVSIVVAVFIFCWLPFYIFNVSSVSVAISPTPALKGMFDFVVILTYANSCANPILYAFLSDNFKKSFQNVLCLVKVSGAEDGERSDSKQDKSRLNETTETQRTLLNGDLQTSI
Radiolabeled SRIF is mixed with pituitary cells, the test compound is added, the mixture is incubated and the radioactivity is measured as compared to control. Reduced radioactivity indicates successful competitive binding of the test compound to the pituitary cell receptor. The concentration of the test compound in nanomolar units required to displace 50% of SRIF from the pituitary cell receptor is calculated and reported in Table II as the IC50 value. Also calculated is the inhibitory constant, Ki.
Tyr^11 S-14 (150,000 cpm at 2000 Ci/mmole, 250 pM final concentration). The binding reaction is initiated by adding 2-60 μg of membrane protein in a 170 μL volume. Final reaction volume is 200 μl/well. All incubations are carried out at room temperature for 2 hours. Free radioligand is separated from bound ligand by rapid filtration through a glass fiber filter (IH-201-HA) using an Inotech cell harvester. The filter is then washed several times with cold (4° C.) binding buffer lacking BSA and protease inhibitors prior to counting in an LKB gamma master counter (78% efficiency). Whatman GFC filters presoaked in 0.3% polyethylenimine (to decrease background) are used.
The IC50 values and Ki values are calculated using the well-known methods described by Y. Cheng and W. H. Prusoff, Biochem. Pharmacol. 22, 3099-3108 (1973), incorporated herein by reference thereto.

Experiment [2] deals with T1, rat somatostatin receptor subtype 2 (SSTR2) (Rattus norvegicus, UniProt P30680).
T1 construct: expressed in transfected cells; host or cells: Saccharomyces cerevisiae LY364 bearing pJH2 (SSTR2) and pLP82 (G protein)
T1 sequence (P30680 whole entry): as above
Briefly: Yeast assay, somatostatin agonist activity (zone of growth of modified yeast cells). The class given is cell-based. Further details: key: 1 is minimum agonist activity; 5 is maximum agonist activity; --: When no activity is observed, the result is indicated by a dash. The conditions noted are these: rating on a scale of 1-5 from zone of growth; S. cerevisiae LY364 expressing rat SSTR2. Here is the method: (§1) In this evaluation, yeast cells which have been specifically modified to functionally express rat somatostatin receptor subtype 2 (SSTR2) on their cell surfaces are used. S. Cerevisiae LY364 cells are plated in a standard synthetic agar medium which lacks histidine. In the absence of a somatostatin receptor agonist, the auxotrophic (his3) cells are unable to grow. In the presence of somatostatin, or a somatostatin agonist, the expression of an enzyme (His3p: imidazole-glycerol phosphate dehydratase) which is essential for histidine biosynthesis is induced. The cells become competent to produce histidine, resulting in a zone of growing cells around the applied test compound. The zone is measured and the test compound is given an agonist rating on a scale of 1-5 wherein 1 is minimum agonist activity and 5 is maximum agonist activity.
1) Inoculate 2 mL SCD-ura-trp liquid medium in Falcon 2051 tube with a single colony taken from a plate containing LY364 (MATa ura3-52 leu2 his3 trp1 lys2 ade2 far1:: LYS2 fus1:: FUS1-HIS3 gpa1::hisG sst2::.ADE2 bearing the SSTR2 expression plasmid, pJH2, and the G protein expression plasmid, pLP82) cells.
3) Add 1 mL of LY364 culture to 1 liter of agar medium.
8) Incubate plates at 30° C.
Day 5. Begin checking plates for growth around applied compounds.
(§2) Day 7. Growth in response to somatostatin should be readily observable. Rate extent of growth or inhibition of growth according to rating scale described hereinabove.

Experiment [3] deals with T1, rat somatostatin receptor subtype 2 (SSTR2). Briefly: Yeast assay, somatostatin antagonist activity (zone of no growth in presence of S-14). The class given is cell-based. Further details: key: 1 is minimum antagonist activity; 5 is maximum antagonist activity; --: When no activity is observed, the result is indicated by a dash. To be noted: rating on a scale of 1-5 from zone of no growth; 5 μL of 1 mg/mL S-14 added to each plate. The method, then: as §1
To evaluate the somatostatin antagonist activity of a test compound, the above procedure is followed except on day 3, 5 μL of 1 mg/mL of somatostatin, S-14, is added to each plate, before applying the test compound. If the test compound is an antagonist of somatostatin, then a zone of no growth will appear within the cell growth zone. This zone of no growth is measured and the test compound is given an antagonist rating on a scale of 1-5 wherein 1 is minimum antagonist activity and 5 is maximum antagonist activity.
The results are shown in Table I. When no activity is observed, the result is indicated by a dash.
On day 3, add 5 μL 1 mg/mL S-14 to each plate.
as §2

The structures appear in SMILES notation. Positions of bridges follow the written chain, without caps; N, C: chain ends. Non-standard residues stand in square brackets, D forms with d. Residues, ends and D or L forms follow the SMILES beside them. Phe(4-NO2) = N[C@@H](Cc1ccc([N+](=O)[O-])cc1)C(=O)O; 2Nal = N[C@@H](Cc1ccc2ccccc2c1)C(=O)O; d2Nal = N[C@H](Cc1ccc2ccccc2c1)C(=O)O; Orn = NCCC[C@H](N)C(=O)O; Abu = CC[C@H](N)C(=O)O

Consider `C[C@@H](O)[C@@H]1NC(=O)[C@H](CCCNC(=N)N)NC(=O)[C@@H](Cc2c[nH]c3ccccc23)NC(=O)[C@H](Cc2ccc(O)cc2)NC(=O)[C@H](NC(=O)[C@@H](N)Cc2ccc([N+](=O)[O-])cc2)CSSC[C@@H](C(=O)N[C@@H](Cc2ccc(O)cc2)C(N)=O)NC1=O` [4-NO2 Phe Tyr Arg Thr Tyr] (H-[Phe(4-NO2)][dC]Y[dW]RTCY-NH2; disulfide 2-7 (inferred); N-terminus and C-terminus assumed), for which, in experiment [1], the Ki was 25 nM and the IC50 was determined as 57 nM. For the same compound, in experiment [2], the “Yeast Assay Agonist” value was “--”. Besides, the “Yeast Assay Antagonist” value in experiment [3] worked out at 2.

Consider `CC[C@@H]1NC(=O)[C@H](CCCCN)NC(=O)[C@@H](Cc2c[nH]c3ccccc23)NC(=O)[C@H](Cc2ccc(O)cc2)NC(=O)[C@H](NC(=O)[C@@H](N)Cc2ccc([N+](=O)[O-])cc2)CSSC[C@@H](C(=O)N[C@@H](Cc2ccc(O)cc2)C(N)=O)NC1=O` [4-NO2 Phe Tyr Lys Abu Tyr] (H-[Phe(4-NO2)][dC]Y[dW]K[Abu]CY-NH2; disulfide 2-7), for which, in experiment [1], the Ki was 1.78 nM and the concentration for half-maximal inhibition (IC50) is 4 nM. Moreover, in experiment [2], the “Yeast Assay Agonist” value was “--”. For the same compound, in experiment [3], the “Yeast Assay Antagonist” value is reported as 3.

As for `C[C@@H](O)[C@@H]1NC(=O)[C@H](CCCCN)NC(=O)[C@@H](Cc2c[nH]c3ccccc23)NC(=O)[C@H](Cc2ccc(O)cc2)NC(=O)[C@H](NC(=O)[C@@H](N)Cc2ccc([N+](=O)[O-])cc2)CSSC[C@@H](C(=O)N[C@H](Cc2ccc(O)cc2)C(N)=O)NC1=O` [4-NO2 Phe Tyr Lys Thr D-Tyr], in experiment [1], the Ki is 1.5 nM and the IC50 is 3 nM. The “Yeast Assay Agonist” value in experiment [2] is “--”. In experiment [3], the “Yeast Assay Antagonist” value was 4.

As to `C[C@@H](O)[C@@H]1NC(=O)[C@H](CCCCN)NC(=O)[C@@H](Cc2c[nH]c3ccccc23)NC(=O)[C@H](Cc2ccc(O)cc2)NC(=O)[C@H](NC(=O)[C@@H](N)Cc2ccc([N+](=O)[O-])cc2)CSSC[C@@H](C(=O)N[C@@H](Cc2ccc(O)cc2)C(N)=O)NC1=O` [4-NO2 Phe Tyr Lys Thr Tyr], in experiment [1], the Ki was 1.33 nM and the IC50 was determined as 3 nM. The “Yeast Assay Agonist” value in experiment [2] is “--”. The “Yeast Assay Antagonist” value in experiment [3] came to 5.

For the compound `CC(C)[C@@H]1NC(=O)[C@H](CCCCN)NC(=O)[C@@H](Cc2c[nH]c3ccccc23)NC(=O)[C@H](Cc2ccc(O)cc2)NC(=O)[C@H](NC(=O)[C@@H](N)Cc2ccc([N+](=O)[O-])cc2)CSSC[C@@H](C(=O)N[C@@H](Cc2ccc3ccccc3c2)C(N)=O)NC1=O` [4-NO2 Phe Tyr Lys Val Nal(2)] (H-[Phe(4-NO2)][dC]Y[dW]KVC[2Nal]-NH2; disulfide 2-7 (inferred); N-terminus and C-terminus assumed), in experiment [1], the Ki is 3.1 nM and the IC50 came out at 7 nM. Moreover, the “Yeast Assay Agonist” value in experiment [2] is “--”. In experiment [3], the “Yeast Assay Antagonist” value is 2.

As for `CC(C)[C@@H]1NC(=O)[C@H](CCCCN)NC(=O)[C@@H](Cc2c[nH]c3ccccc23)NC(=O)[C@H](Cc2ccc(O)cc2)NC(=O)[C@H](NC(=O)[C@@H](N)Cc2ccc([N+](=O)[O-])cc2)CSSC[C@@H](C(=O)N[C@@H](Cc2ccc(O)cc2)C(N)=O)NC1=O` [4-NO2 Phe Tyr Lys Val Tyr] (H-[Phe(4-NO2)][dC]Y[dW]KVCY-NH2; disulfide 2-7 (inferred); N-terminus and C-terminus assumed), in experiment [1], the Ki is 12.9 nM and the IC50 worked out at 29 nM. Also, the “Yeast Assay Agonist” value in experiment [2] is listed as “--”. For the same compound, the “Yeast Assay Antagonist” value in experiment [3] came out at 5.

For `CC(C)[C@@H]1NC(=O)[C@H](CCCN)NC(=O)[C@@H](Cc2c[nH]c3ccccc23)NC(=O)[C@H](Cc2ccc(O)cc2)NC(=O)[C@H](NC(=O)[C@@H](N)Cc2ccc([N+](=O)[O-])cc2)CSSC[C@@H](C(=O)N[C@@H](Cc2ccc(O)cc2)C(N)=O)NC1=O` [4-NO2 Phe Tyr Orn Val Tyr] (H-[Phe(4-NO2)][dC]Y[dW][Orn]VCY-NH2; disulfide 2-7 (inferred); N-terminus and C-terminus assumed), the “Yeast Assay Agonist” value in experiment [2] is “--”. Moreover, the “Yeast Assay Antagonist” value in experiment [3] was found to be 1.

Take `CC(=O)N[C@@H](Cc1ccc(I)cc1)C(=O)N[C@@H]1CSSC[C@@H](C(=O)N[C@H](Cc2ccc(O)cc2)C(N)=O)NC(=O)[C@H]([C@@H](C)O)NC(=O)[C@H](CCCCN)NC(=O)[C@@H](Cc2c[nH]c3ccccc23)NC(=O)[C@H](Cc2ccc(O)cc2)NC1=O` [Ac-4-IPhe Tyr Lys Thr D-Tyr]: the “Yeast Assay Agonist” value in experiment [2] is recorded as “--”. The “Yeast Assay Antagonist” value in experiment [3] amounted to 4.

For the compound `CC(=O)N[C@@H](Cc1ccc([N+](=O)[O-])cc1)C(=O)N[C@@H]1CSSC[C@@H](C(=O)N[C@H](Cc2ccc(O)cc2)C(N)=O)NC(=O)[C@H]([C@@H](C)O)NC(=O)[C@H](CCCCN)NC(=O)[C@@H](Cc2c[nH]c3ccccc23)NC(=O)[C@H](Cc2ccc(O)cc2)NC1=O` [Ac-4-NO2 Phe Tyr Lys Thr D-Tyr], in experiment [1], the Ki is 0.3 nM and the concentration for half-maximal inhibition (IC50) was 0.7 nM. Besides, the “Yeast Assay Agonist” value in experiment [2] is “--”. Also, the “Yeast Assay Antagonist” value in experiment [3] came out at 4.

With `CC(=O)N[C@@H](Cc1ccc2ccccc2c1)C(=O)N[C@@H]1CSSC[C@@H](C(=O)N[C@@H](Cc2ccc(O)cc2)C(N)=O)NC(=O)[C@H]([C@@H](C)O)NC(=O)[C@H](CCCCN)NC(=O)[C@@H](Cc2c[nH]c3ccccc23)NC(=O)[C@H](Cc2ccc(O)cc2)NC1=O` [Ac-Nal(2) Tyr Lys Thr Tyr] (Ac-[2Nal][dC]Y[dW]KTCY-NH2; disulfide 2-7 (inferred); N-terminus and C-terminus assumed), in experiment [1], the Ki was 0.48 nM and the half-maximal inhibitory concentration (IC50) was 1 nM. In experiment [2], the “Yeast Assay Agonist” value is given as “--”. The “Yeast Assay Antagonist” value in experiment [3] is recorded as 1.

As for `CC(C)[C@@H]1NC(=O)[C@H](CCCCN)NC(=O)[C@@H](Cc2c[nH]c3ccccc23)NC(=O)[C@H](Cc2ccc(O)cc2)NC(=O)[C@H](NC(=O)[C@H](N)Cc2ccc3ccccc3c2)CSSC[C@@H](C(=O)N[C@@H](Cc2ccc(O)cc2)C(N)=O)NC1=O` [D-Nal(2) Tyr Lys Val Tyr] (H-[d2Nal][dC]Y[dW]KVCY-NH2; disulfide 2-7), in experiment [1], the Ki was 0.89 nM and the IC50 turned out to be 2 nM. Besides, in experiment [2], the “Yeast Assay Agonist” value is reported as “--”. Moreover, the “Yeast Assay Antagonist” value in experiment [3] was found to be 2.

On to `C[C@@H](O)[C@@H]1NC(=O)[C@H](CCCCN)NC(=O)[C@@H](Cc2c[nH]c3ccccc23)NC(=O)[C@H](Cc2ccc(O)cc2)NC(=O)[C@H](NC(=O)[C@@H](N)Cc2ccc3ccccc3c2)CSSC[C@@H](C(=O)N[C@@H](Cc2ccc(O)cc2)C(N)=O)NC1=O` [L-Nal(2) Tyr Lys Thr Tyr] (H-[2Nal][dC]Y[dW]KTCY-NH2; disulfide 2-7 (inferred); N-terminus and C-terminus assumed), for which, in experiment [1], the Ki is 0.4 nM and the IC50 came to 0.9 nM. For the same compound, the “Yeast Assay Agonist” value in experiment [2] is recorded as “--”. In experiment [3], the “Yeast Assay Antagonist” value is 1.
